Measured values as given in patent publication US20100203650A1, “BIOMOLECULE BINDING LIGANDS” (CAMBRIDGE ENTERPRISE LIMITED, priority 2007, published 2010).
Entries after “also recorded” stand apart in the source; their conditions may differ.

Target: T1, Factor VIII (Homo sapiens, UniProt P00451)
T1 construct: large-scale purification of a full-length recombinant Factor VIII
Test: Factor VIII microplate assay
Assay type: binding
Experimental: On the basis of the results obtained from the initial collection, additional ligands were prepared and screened in relation to Factor VIII binding and elution behaviour. These studies have been performed either using a simple microtitre plate assay (resin volume 40 μL/well) to determine approximate Factor VIII binding affinity followed by more detailed studies using gravity-flow packed resin columns (0.5 mL resin volume). These packed column studies are more accurate and allow simple experiments to be conducted to determine absolute resin affinity by gradual saturation of the column (200 μL, […]) and following the protein concentration in the eluate after serial addition of each factor VIII aliquot applied to the column. In this way, the binding can be established and elution behaviour of each ligand in parallel.

T1 sequence (P00451 20-2351): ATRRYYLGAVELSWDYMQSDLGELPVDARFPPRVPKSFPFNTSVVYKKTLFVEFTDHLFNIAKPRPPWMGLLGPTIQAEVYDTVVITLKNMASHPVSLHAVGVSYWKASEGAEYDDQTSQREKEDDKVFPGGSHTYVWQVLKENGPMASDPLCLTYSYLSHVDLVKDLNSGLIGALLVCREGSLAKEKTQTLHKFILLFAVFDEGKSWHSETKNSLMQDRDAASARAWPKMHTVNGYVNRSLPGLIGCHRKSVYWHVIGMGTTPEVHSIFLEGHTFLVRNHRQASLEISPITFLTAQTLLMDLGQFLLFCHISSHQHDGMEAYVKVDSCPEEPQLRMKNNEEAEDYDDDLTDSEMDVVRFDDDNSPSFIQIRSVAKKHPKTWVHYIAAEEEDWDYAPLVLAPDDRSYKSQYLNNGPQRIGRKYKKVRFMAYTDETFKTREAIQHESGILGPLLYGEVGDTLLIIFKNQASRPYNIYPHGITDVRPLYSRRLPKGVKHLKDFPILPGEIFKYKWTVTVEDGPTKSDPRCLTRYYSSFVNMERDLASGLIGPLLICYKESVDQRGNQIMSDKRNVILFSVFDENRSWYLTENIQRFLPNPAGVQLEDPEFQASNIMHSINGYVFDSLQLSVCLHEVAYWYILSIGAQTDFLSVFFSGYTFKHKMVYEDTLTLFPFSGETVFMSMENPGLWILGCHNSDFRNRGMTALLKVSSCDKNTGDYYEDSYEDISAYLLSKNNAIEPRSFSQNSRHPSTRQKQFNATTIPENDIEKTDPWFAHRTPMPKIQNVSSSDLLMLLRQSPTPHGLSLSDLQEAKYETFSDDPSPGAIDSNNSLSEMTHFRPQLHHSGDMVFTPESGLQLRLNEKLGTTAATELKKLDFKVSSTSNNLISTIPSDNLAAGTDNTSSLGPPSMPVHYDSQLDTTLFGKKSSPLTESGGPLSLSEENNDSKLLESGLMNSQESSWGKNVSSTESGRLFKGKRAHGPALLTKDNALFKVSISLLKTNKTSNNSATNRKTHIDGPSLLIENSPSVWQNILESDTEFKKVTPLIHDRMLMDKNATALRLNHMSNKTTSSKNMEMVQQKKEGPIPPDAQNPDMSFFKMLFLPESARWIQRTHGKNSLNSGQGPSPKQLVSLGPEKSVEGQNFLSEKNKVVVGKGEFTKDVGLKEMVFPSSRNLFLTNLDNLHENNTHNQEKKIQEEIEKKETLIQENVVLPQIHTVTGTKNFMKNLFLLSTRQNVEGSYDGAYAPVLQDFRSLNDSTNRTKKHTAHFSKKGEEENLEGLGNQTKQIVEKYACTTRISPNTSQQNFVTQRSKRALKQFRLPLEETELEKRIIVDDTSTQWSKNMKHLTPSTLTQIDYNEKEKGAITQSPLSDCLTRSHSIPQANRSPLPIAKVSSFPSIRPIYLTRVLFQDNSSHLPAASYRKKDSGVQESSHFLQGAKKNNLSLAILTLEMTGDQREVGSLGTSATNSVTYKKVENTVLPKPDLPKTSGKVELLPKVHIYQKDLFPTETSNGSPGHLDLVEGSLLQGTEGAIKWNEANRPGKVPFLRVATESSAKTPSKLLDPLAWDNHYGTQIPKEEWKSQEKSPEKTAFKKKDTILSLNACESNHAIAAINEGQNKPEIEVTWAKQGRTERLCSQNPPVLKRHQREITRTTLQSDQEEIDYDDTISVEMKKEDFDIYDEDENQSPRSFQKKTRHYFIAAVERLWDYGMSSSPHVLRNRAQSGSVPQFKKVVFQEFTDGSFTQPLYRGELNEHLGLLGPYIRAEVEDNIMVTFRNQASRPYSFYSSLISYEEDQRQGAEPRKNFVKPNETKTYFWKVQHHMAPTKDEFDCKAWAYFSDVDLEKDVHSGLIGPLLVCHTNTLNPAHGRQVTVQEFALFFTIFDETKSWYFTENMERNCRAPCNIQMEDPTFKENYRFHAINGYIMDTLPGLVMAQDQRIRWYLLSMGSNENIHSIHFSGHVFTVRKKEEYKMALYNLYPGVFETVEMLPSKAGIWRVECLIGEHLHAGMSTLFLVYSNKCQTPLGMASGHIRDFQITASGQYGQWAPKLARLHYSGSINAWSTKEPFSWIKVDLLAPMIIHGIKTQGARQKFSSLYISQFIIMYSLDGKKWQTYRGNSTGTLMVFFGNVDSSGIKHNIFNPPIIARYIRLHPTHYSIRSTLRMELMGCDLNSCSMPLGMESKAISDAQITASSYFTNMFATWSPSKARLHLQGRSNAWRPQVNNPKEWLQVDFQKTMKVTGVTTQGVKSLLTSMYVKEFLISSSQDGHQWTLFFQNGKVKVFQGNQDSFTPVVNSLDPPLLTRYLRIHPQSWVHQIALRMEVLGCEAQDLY

Factor VIII Bound (initial collection U1-U4 and comparison ligand): 106.3 µg/mL
SMILES: COC(=O)c1cccc(Nc2nc(C)nc(Nc3cccc4c(S(=O)(=O)OC)cccc34)n2)c1 [34/43]
Factor VIII binding (in words): strongest Factor VIII binding and elution characteristics; also recorded: one of the highest Factor VIII binding potential
